# Measurements from patent US12157746B2, “Tetrahydro-1H-pyrazino[2,1-a]isoindolylquinoline compounds for the treatment of autoimmune disease” (F. HOFFMANN-LA ROCHE AG, priority 2018, dated 2024).
# System: Balb/c 3T3 mouse fibroblasts
# Test: 3T3 in vitro phototoxicity assay
# Type: cell-based
# Conditions: Factor=IC50(−UV)/IC50(+UV); cut-off factor >5; Neutral Red uptake
# Description: 3T3 In Vitro Phototoxicity Assay
# Phototoxicity is defined as a toxic response that is elicited after the first exposure of the skin to certain chemicals and subsequent exposure to light, or that is induced similarly by skin irradiation after systemic administration of a chemical substance. The assay used in this study is designed to detect the phototoxic potential of a chemical by using a simple in vitro cytotoxicity assay with Balb/c 3T3 mouse fibroblasts. The principle of this test is a comparison of the cytotoxicity of a chemical when tested with and without exposure to a non-toxic dose of UVA-light. Cytotoxicity is expressed as a dose dependent reduction of the growth rate of cells as determined by uptake of the vital dye Neutral Red one day after treatment.
# A small amount of substance was weighed and formulated freshly in DMSO just before the start of the exposure of the cells. This stock solution or appropriate dilutions with DMSO were added to the cell suspensions to obtain the required final concentrations. All solutions were generally prepared in Eppendorf caps and discarded after use.
# For this study the Neutral Red uptake (NRU) assay of Borenfreund and Puemer (Borenfreund, E, Puemer J A. Toxicity determined in vitro by morphological alterations and Neutral Red absorption. Toxicology Lett. 1985; 24:119-124) modified according to INVITTOX protocol No 78 (ERGATT/FRAME data bank of in vitro techniques in toxicology. INVITTOX PROTOCOL No 78. 3T3 NRU Phototoxicity Assay. March 1994) has been adapted to examine a possible phototoxic potential of the test item. This assay is based on the active uptake of the Neutral Red dye into the lysosomes of cultured murine fibroblasts. Because lysosomal membranes are known to be a site of action of many phototoxic compounds, this assay can provide a measure of potential for phototoxic injury.
# A murine fibroblasts clone A 31 (ATCC no. CCL 163—passage No. 108) were cultured in 175 cm2 tissue culture grade flasks, containing sDMEM (Dulbecco's Minimal Essential Medium, supplemented with 10% fetal calf serum, 2 mM L-glutamine, 100 units/ml Penicillin and 100 μg/ml streptomycin) at 37° C. in a humidified atmosphere of 6% C02. Before cells approach confluence they were removed from flasks by trypsinisation. Prior to use in an assay, the cells were transferred to 96-well microtiter plates at a concentration of 1×10^4 cells/well in 100 μl volumes of sDMEM and allowed to attach for 24 h.
# For incubation with murine fibroblasts, the test item was diluted in PBS/3% DMSO (detailed concentrations see in results).
# Culture medium (Dulbecco's Modified Eagle Medium (DMEM), GlutaMAX (Gibco Ref 21885-025), 10% Fetal Bovine Serum (FBS) (Gibco Ref 10270-106), 100 IU/ml Penicillin and 100 μg/ml Streptomycin (Gibco Ref 15140-122)) was removed from the wells and murine fibroblasts were washed with PBS. Afterwards 100 μL of PBS/3% DMSO containing the test item was added and target cells were incubated for 1 h at 37° C. with 6% CO2.
# For each test item the microtiter plates were prepared according to Table 4. “UVA plates” were exposed to approx. 5 J/cm2 UVA light, the “Dark plates” were kept in the dark and served as cytotoxicity control. Plates with chlorpromazine hydrochloride served as positive control. UV flux was measured with a UV-meter (Dr. Gröbel RM21).
# Following UV irradiation, the test item was removed from the wells (one washing step with PBS) and replaced with sDMEM. Target cells were then incubated overnight at 37° C. in 6% CO2.
# Each plate contained wells with cells and solvent but without test item which were either not incubated with Neutral Red solution (0% standard—S1) or were stained with Neutral Red (100% standard—S2) for calculation of the standard cell viability curve. Wells labeled with U01-U08 contained the different test item concentrations.
# After the incubation the wells to be assayed were filled with 100 μL of the sDMEM containing Neutral Red. […]
row,SMILES,Phototoxicity factor
1,"C[C@@H]1CN(c2ccc(C#N)c3ncccc23)C[C@@H]2c3ccc(N[C@H]4CNC[C@H]4F)cc3CN12 [Example 30, 5-[(4R,10bS)-8-[[(3S,4R)-4-fluoropyrrolidin-3-yl]amino]-4-methyl-3,4,6,10b-tetrahydro-1H-pyrazino[2,1-a]isoindol-2-yl]quinoline-8-carbonitrile]",>1.9
2,"CO[C@@H]1CN(c2ccc3c(c2)CN2[C@H](C)CN(c4ccc(C#N)n5nccc45)C[C@H]32)C[C@H]1N [Example 94, 4-[(4R,10bS)-8-[(3R,4R)-3-amino-4-methoxy-pyrrolidin-1-yl]-4-methyl-3,4,6,10b-tetrahydro-1H-pyrazino[2,1-a]isoindol-2-yl]pyrazolo[1,5-a]pyridine-7-carbonitrile]",1.99

# Same assay, conditions: Mus musculus, BALB/c3T3, light or radiation study; with approx. 5 J/cm2 UVA light, Neutral Red uptake
row,SMILES,IC50
1,"C[C@@H]1CN(c2ccc(C#N)c3ncccc23)C[C@@H]2c3ccc(N[C@H]4CNC[C@H]4F)cc3CN12 [Example 30, 5-[(4R,10bS)-8-[[(3S,4R)-4-fluoropyrrolidin-3-yl]amino]-4-methyl-3,4,6,10b-tetrahydro-1H-pyrazino[2,1-a]isoindol-2-yl]quinoline-8-carbonitrile]",54.6 µg/mL
2,"CO[C@@H]1CN(c2ccc3c(c2)CN2[C@H](C)CN(c4ccc(C#N)n5nccc45)C[C@H]32)C[C@H]1N [Example 94, 4-[(4R,10bS)-8-[(3R,4R)-3-amino-4-methoxy-pyrrolidin-1-yl]-4-methyl-3,4,6,10b-tetrahydro-1H-pyrazino[2,1-a]isoindol-2-yl]pyrazolo[1,5-a]pyridine-7-carbonitrile]",39 µg/mL

# System: not listed separately
# Test: Human microsomal stability assay
# Type: in vitro ADME
# Conditions: human liver microsomes 0.5 mg/mL, 37° C., pH 7.4, NADPH regenerating system, 0-30 minutes
# Procedure: Human Microsomal Stability Assay
# Human liver microsomes (Cat. NO.: 452117, Corning, USA) were preincubated with test compound for 10 minutes at 37° C. in 100 mM potassium phosphate buffer, pH 7.4. The reactions were initiated by adding NADPH regenerating system. The final incubation mixtures contained […] test compound, 0.5 mg/mL liver microsomal protein, 1 mM MgCl2, 1 mM NADP, 1 unit/mL isocitric dehydrogenase and 6 mM isocitric acid in 100 mM potassium phosphate buffer, pH 7.4. After incubation times of 0, 3, 6, 9, 15 and 30 minutes at 37° C., 300 μL of cold ACN (including internal standard) was added to 100 μL incubation mixture to terminate the reaction. Following precipitation and centrifugation, 100 μL supernatant will be taken out and added 300 uL water. The amount of compound remaining in the samples was determined by LC-MS/MS. Controls of no NADPH regenerating system at zero and 30 minutes were also prepared and analyzed. The results were categorized as: low (<7.0 mLJmin/kg), medium (7.0-16.2 mL/min/kg) and high (16.2-23.2 mLJmin/kg).
row,CL (h),SMILES
1,8.9 mL/min/kg,"C[C@@H]1CN(c2ccc(C#N)c3ncccc23)C[C@@H]2c3ccc(N4C[C@@H](N)[C@H](F)C4)cc3CN12 [Example 48, 5-[(4R,10bS)-8-[(3R,4R)-3-amino-4-fluoro-pyrrolidin-1-yl]-4-methyl-3,4,6,10b-tetrahydro-1H-pyrazino[2,1-a]isoindol-2-yl]quinoline-8-carbonitrile]"
2,8.1 mL/min/kg,"COC1CN(c2ccc3c(c2)CN2C3CN(c3ccc(C#N)c4ncccc34)C[C@H]2C)CC1N (single isomer, unassigned) [Example 16B]"
3,7.0 mL/min/kg,"C[C@@H]1CN(c2ccc(C#N)c3ncccc23)C[C@@H]2c3ccc(N4C[C@H](N)[C@@H](O)C4)cc3CN12 [Example 40A, 5-[(4R,10bS)-8-[(3S,4S)-3-amino-4-hydroxy-pyrrolidin-1-yl]-4-methyl-3,4,6,10b-tetrahydro-1H-pyrazino[2,1-a]isoindol-2-yl]quinoline-8-carbonitrile]"
4,6.2 mL/min/kg,"C[C@@H]1CN(c2ccc(C#N)c3ncccc23)C[C@@H]2c3ccc(N4CC5(CNC5)C4)cc3CN12 [Example 36, 5-[(4R,10bS)-8-(2,6-diazaspiro[3.3]heptan-2-yl)-4-methyl-3,4,6,10b-tetrahydro-1H-pyrazino[2,1-a]isoindol-2-yl]quinoline-8-carbonitrile]"
5,6.5 mL/min/kg,"C[C@@H]1CN(c2ccc(C#N)c3ncccc23)C[C@@H]2c3ccc(N4CC5(CCN5)C4)cc3CN12 [Example 37, 5-[(4R,10bS)-8-(1,6-diazaspiro[3.3]heptan-6-yl)-4-methyl-3,4,6,10b-tetrahydro-1H-pyrazino[2,1-a]isoindol-2-yl]quinoline-8-carbonitrile]"
6,6.5 mL/min/kg,"C[C@@H]1CN(c2ccc(C#N)c3ncccc23)C[C@@H]2c3ccc(N4CC[C@@H](N)C4)cc3CN12 [Example 20, 5-[(4R,10bS)-8-[(3R)-3-aminopyrrolidin-1-yl]-4-methyl-3,4,6,10b-tetrahydro-1H-pyrazino[2,1-a]isoindol-2-yl]quinoline-8-carbonitrile]"
7,6.2 mL/min/kg,"C[C@@H]1CN(c2ccc(C#N)c3ncccc23)C[C@@H]2c3ccc(N4C[C@H](N)[C@@](C)(O)C4)cc3CN12 [Example 45B, 5-[(4R,10bS)-8-[(3S,4S)-4-amino-3-hydroxy-3-methyl-pyrrolidin-1-yl]-4-methyl-3,4,6,10b-tetrahydro-1H-pyrazino[2,1-a]isoindol-2-yl]quinoline-8-carbonitrile]"
8,8.5 mL/min/kg,"CO[C@H]1CN(c2ccc3c(c2)CN2C3CN(c3ccc(C#N)c4ncccc34)C[C@H]2C)C[C@@H]1N (single isomer, unassigned) [Example 16A]"

# Further lines, the compound ahead of its results:
row,SMILES,CL (h)
1,"C[C@@H]1CN(c2ccc(C#N)c3ncccc23)C[C@@H]2c3ccc(N[C@H]4CNC[C@H]4F)cc3CN12 [Example 30, 5-[(4R,10bS)-8-[[(3S,4R)-4-fluoropyrrolidin-3-yl]amino]-4-methyl-3,4,6,10b-tetrahydro-1H-pyrazino[2,1-a]isoindol-2-yl]quinoline-8-carbonitrile]",8.8 mL/min/kg
2,"CO[C@@H]1CN(c2ccc3c(c2)CN2[C@H](C)CN(c4ccc(C#N)n5nccc45)C[C@H]32)CC[C@H]1N [Example 104, 4-[(4R,10bS)-8-[(3R,4R)-4-amino-3-methoxy-1-piperidyl]-4-methyl-3,4,6,10b-tetrahydro-1H-pyrazino[2,1-a]isoindol-2-yl]pyrazolo[1,5-a]pyridine-7-carbonitrile]",7.0 mL/min/kg
3,"C[C@@H]1CN(c2ccc(C#N)c3ncccc23)C[C@@H]2c3ccc(N4CCNC[C@H]4CO)cc3CN12 [Example 11, 5-[(4R,10S)-8-[(2S)-2-(hydroxymethyl)piperazin-1-yl]-4-methyl-3,4,6,10b-tetrahydro-1H-pyrazino[2,1-a]isoindol-2-yl]quinoline-8-carbonitrile]",6.2 mL/min/kg
4,"C[C@@H]1CN(c2ccc(C#N)c3nccnc23)C[C@@H]2c3ccc(N4CCNCC4)cc3CN12 [Example 7, 8-[(4R,10bS)-4-methyl-8-piperazin-1-yl-3,4,6,10b-tetrahydro-1H-pyrazino[2,1-a]isoindol-2-yl]quinoxaline-5-carbonitrile]",7.8 mL/min/kg
5,"C[C@@H]1CN(c2ccc(C#N)c3ncccc23)C[C@@H]2c3ccc(N[C@@H]4CNC[C@@H]4F)cc3CN12 [Example 32, 5-[(4R,10bS)-8-[[(3R,4S)-4-fluoropyrrolidin-3-yl]amino]-4-methyl-3,4,6,10b-tetrahydro-1H-pyrazino[2,1-a]isoindol-2-yl]quinoline-8-carbonitrile]",8.7 mL/min/kg
6,"C[C@@H]1CN(c2ccc(C#N)c3ncccc23)C[C@@H]2c3ccc(N4CC5(CN(C)C5)C4)cc3CN12 [Example 38, 5-[(4R,10bS)-4-methyl-8-(6-methyl-2,6-diazaspiro[3.3]heptan-2-yl)-3,4,6,10b-tetrahydro-1H-pyrazino[2,1-a]isoindol-2-yl]quinoline-8-carbonitrile]",6.2 mL/min/kg
7,"C[C@@H]1CN(c2ccc(C#N)c3ncccc23)C[C@@H]2c3ccc(NCCN(C)C)cc3CN12 [Example 26, 5-[(4R,10bS)-8-[2-(dimethylamino)ethylamino]-4-methyl-3,4,6,10b-tetrahydro-1H-pyrazino[2,1-a]isoindol-2-yl]quinoline-8-carbonitrile]",6.2 mL/min/kg
8,"N#Cc1ccc(N2CCN3Cc4cc(N5CCNCC5)ccc4C3C2)c2scnc12 (centres unmarked) [Example 4, 7-(8-piperazin-1-yl-3,4,6,10b-tetrahydro-1H-pyrazino[2,1-a]isoindol-2-yl)-1,3-benzothiazole-4-carbonitrile]",6.2 mL/min/kg
